From ChEMBL document CHEMBL1287767, “Experimental solubility profiling of marketed CNS drugs, exploring solubility limit of CNS discovery candidate” (Bioorg Med Chem Lett, 2010)
≈ marks a conversion by molar mass, not a printed value.

experiment: Solubility of the compound in 0.1 M phosphate buffer at 600 uM at pH 7.4 after 24 hrs by LC/MS/MS analysis; settings: 0.1 M phosphate buffer, pH 7.4

| Structure (SMILES) | solubility at 24 h, 600 µM [µM] |
| --- | --- |
| CN1CCN2c3ncccc3Cc3ccccc3C2C1 (configuration not stated) [MIRTAZAPINE] | > 500 |
| NC(=O)CCC/N=C(\c1ccc(Cl)cc1)c1cc(F)ccc1O [PROGABIDE] | 55.2 (≈ 18.5 µg/mL) |
| COCCCC/C(=N\OCCN)c1ccc(C(F)(F)F)cc1 [FLUVOXAMINE] | > 500 |
| COc1cccc(C2(O)CCCCC2CN(C)C)c1 (configuration not stated) [TRAMADOL] | > 500 |
| CN1[C@@H]2CC[C@H]1C[C@@H](OC(=O)c1c[nH]c3ccccc13)C2 [TROPISETRON] | > 500 |
| O=C1CCc2ccc(OCCCCN3CCN(c4cccc(Cl)c4Cl)CC3)cc2N1 [ARIPIPRAZOLE] | 1.03 (≈ 0.462 µg/mL) |
| O=C1NC(=O)C(c2ccccc2)(c2ccccc2)N1 [PHENYTOIN] | 80 (≈ 20.2 µg/mL) |
| CC(C)CC(N(C)C)C1(c2ccc(Cl)cc2)CCC1 (configuration not stated) [SIBUTRAMINE] | 143 (≈ 40 µg/mL) |
| Cc1cc2c(s1)Nc1ccccc1N=C2N1CCN(C)CC1 [OLANZAPINE] | > 500 |
| O=C1CC2(CCCC2)CC(=O)N1CCCCN1CCN(c2ncccn2)CC1 [BUSPIRONE] | > 500 |
| CCCC(CCC)C(=O)O [VALPROIC ACID] | > 500 |
| CCC(=O)O[C@](Cc1ccccc1)(c1ccccc1)[C@H](C)CN(C)C [PROPOXYPHENE] | 250 (≈ 84.9 µg/mL) |
| Fc1ccccc1C1=NCC(=S)N(CC(F)(F)F)c2ccc(Cl)cc21 [QUAZEPAM] | 0.3 (≈ 0.116 µg/mL) |
| COc1ccc(C(=O)N2CCCC2=O)cc1 | 500 (≈ 110 µg/mL) |
| CCC1(c2cccc(O)c2)CCCCN(C)C1 (configuration not stated) [MEPTAZINOL] | > 500 |
| Cc1ccc(C(=O)c2cc(O)c(O)c([N+](=O)[O-])c2)cc1 [TOLCAPONE] | > 500 |
| O=C1NCCN1CCN1CCC(c2cn(-c3ccc(F)cc3)c3ccc(Cl)cc23)CC1 [SERTINDOLE] | 18.1 (≈ 7.98 µg/mL) |
| COC(=O)C(c1ccccc1)C1CCCCN1 (configuration not stated) [METHYLPHENIDATE] | 411 (≈ 95.9 µg/mL) |
| CN1C[C@H](C(=O)N[C@]2(C)O[C@@]3(O)[C@@H]4CCCN4C(=O)[C@H](Cc4ccccc4)N3C2=O)C[C@@H]2c3cccc4[nH]cc(c34)C[C@H]21 [DIHYDROERGOTAMINE] | 37 (≈ 21.6 µg/mL) |
| C=CC(N)CCC(=O)O (configuration not stated) [VIGABATRIN] | > 500 |
| COC1=C(OC)C(=O)C(CCCCCCCCCCO)=C(C)C1=O [IDEBENONE] | 16 (≈ 5.42 µg/mL) |
| CCN1CCCC1CNC(=O)c1cc(S(=O)(=O)CC)c(N)cc1OC (configuration not stated) [AMISULPRIDE] | > 500 |
| CN1C2CCCC1CC(NC(=O)c1nn(C)c3ccccc13)C2 (configuration not stated) [GRANISETRON] | > 500 |
| O=C1CN=C(c2ccccn2)c2cc(Br)ccc2N1 [BROMAZEPAM] | 334 (≈ 106 µg/mL) |

| Structure (SMILES) | solubility at 24 h, 600 µM [µM] |
| --- | --- |
| CN(C)CCC[C@@]1(c2ccc(F)cc2)OCc2cc(C#N)ccc21 [ESCITALOPRAM] | > 500 |
| CCN1CCC[C@H]1CNC(=O)c1c(OC)ccc(Br)c1OC [REMOXIPRIDE] | > 500 |
| O=C1CC[C@@]2(O)[C@H]3Cc4ccc(O)c5c4[C@@]2(CCN3CC2CC2)[C@H]1O5 [NALTREXONE] | > 500 |
| CCOC(=O)Nc1ccc(NCc2ccc(F)cc2)nc1N [FLUPIRTINE] | > 500 |
| CNS(=O)(=O)CCc1ccc2[nH]cc(C3CCN(C)CC3)c2c1 | > 500 |
| NCC1(CC(=O)O)CCCCC1 [GABAPENTIN] | > 500 |
| Cc1ccc(-c2nc3ccc(C)cn3c2CC(=O)N(C)C)cc1 [ZOLPIDEM] | 260 (≈ 79.9 µg/mL) |
| CN1CCC[C@@H]1Cc1c[nH]c2ccc(CCS(=O)(=O)c3ccccc3)cc12 | > 500 |
| O=C(O[C@@H]1C[C@@H]2C[C@H]3C[C@H](C1)N2CC3=O)c1c[nH]c2ccccc12 [DOLASETRON] | 195 (≈ 63.3 µg/mL) |
| NC(=O)OCC(COC(N)=O)c1ccccc1 [FELBAMATE] | > 500 |
| Cc1ccsc1C(=CCCN1CCC[C@@H](C(=O)O)C1)c1sccc1C [TIAGABINE] | > 500 |
| C=CCN1CCc2nc(N)sc2CC1 [TALIPEXOLE] | 133 (≈ 27.8 µg/mL) |
| NS(=O)(=O)Cc1noc2ccccc12 [ZONISAMIDE] | > 500 |
| CNCC[C@@H](Oc1ccccc1C)c1ccccc1 [ATOMOXETINE] | > 500 |
| CC(NC(C)(C)C)C(=O)c1cccc(Cl)c1 (configuration not stated) [BUPROPION] | 328 (≈ 78.6 µg/mL) |
| CCCN1C[C@H](CSC)C[C@@H]2c3cccc4[nH]cc(c34)C[C@H]21 [PERGOLIDE] | 2.1 (≈ 0.66 µg/mL) |
| CCc1cc2c(s1)-n1c(C)nnc1CN=C2c1ccccc1Cl [ETIZOLAM] | > 480 |
| O=C(NCCN1CCOCC1)c1ccc(Cl)cc1 [MOCLOBEMIDE] | > 500 |
| CCN[C@@H](C)Cc1cccc(C(F)(F)F)c1 [DEXFENFLURAMINE] | 500 (≈ 116 µg/mL) |
| CN1C(=O)CN=C(c2ccccc2F)c2cc([N+](=O)[O-])ccc21 [FLUNITRAZEPAM] | 54 (≈ 16.9 µg/mL) |
| CN1CCN(C(=O)OC2c3nccnc3C(=O)N2c2ccc(Cl)cn2)CC1 (configuration not stated) [ZOPICLONE] | 219 (≈ 85.2 µg/mL) |
| Oc1ccc2c(c1)[C@@]13CCCC[C@@]1(O)[C@@H](C2)N(CC1CCC1)CC3 [BUTORPHANOL] | > 500 |
| CN(C)CCc1c[nH]c2ccc(Cn3cncn3)cc12 [RIZATRIPTAN] | > 500 |
| Cc1nc2n(c(=O)c1CCN1CCC(c3noc4cc(F)ccc34)CC1)CCCC2 [RISPERIDONE] | > 444 |

| Structure (SMILES) | solubility at 24 h, 600 µM [µM] |
| --- | --- |
| NC(=O)C[S+]([O-])C(c1ccccc1)c1ccccc1 (configuration not stated) [MODAFINIL] | > 500 |
| O=C(c1ccccc1)c1ccc2n1CCC2C(=O)O (configuration not stated) [KETOROLAC] | > 459 |
| COCC1CN=C(c2ccccc2Cl)c2cc(Br)ccc2N1C (configuration not stated) [METACLAZEPAM] | 3.52 (≈ 1.39 µg/mL) |
| CN(C)CCc1c[nH]c2ccc(C[C@H]3COC(=O)N3)cc12 [ZOLMITRIPTAN] | > 500 |
| CNS(=O)(=O)Cc1ccc2[nH]cc(CCN(C)C)c2c1 | > 500 |
| O=C(O)C1N=C(c2ccccc2)c2cc(Cl)ccc2NC1=O (configuration not stated) [CLORAZEPIC ACID] | > 495 |
| CCCN(CCC)CCc1cccc2c1CC(=O)N2 [ROPINIROLE] | > 500 |
| CCc1nn(CCCN2CCN(c3cccc(Cl)c3)CC2)c(=O)n1CCOc1ccccc1 [NEFAZODONE] | 9.9 (≈ 4.65 µg/mL) |
| Fc1ccc([C@@H]2CCNC[C@H]2COc2ccc3c(c2)OCO3)cc1 [PAROXETINE] | > 500 |
| CCOc1ccccc1OC(c1ccccc1)C1CNCCO1 (configuration not stated) [REBOXETINE] | > 500 |
| NC(=O)N1c2ccccc2C=Cc2ccccc21 [CARBAMAZEPINE] | > 490 |
| NC(=O)N1c2ccccc2CC(=O)c2ccccc21 [OXCARBAZEPINE] | 245 (≈ 61.8 µg/mL) |
| CCCCCc1cc(O)c2c(c1)OC(C)(C)[C@@H]1CCC(C)=C[C@@H]21 [DRONABINOL] | > 500 |
| Cc1nnc2n1-c1ccc(Cl)cc1C(c1ccccc1Cl)=NC2 [TRIAZOLAM] | 35.9 (≈ 12.3 µg/mL) |
| CC1(C)O[C@@H]2[C@@H](CO[C@@]3(COS(N)(=O)=O)OC(C)(C)O[C@@H]23)O1 [TOPIRAMATE] | > 500 |
| C[C@@](Cc1ccc(O)c(O)c1)(NN)C(=O)O.O [CARBIDOPA] | > 500 |
| CN1CCN(C2=Nc3cc(Cl)ccc3Nc3ccccc32)CC1 [CLOZAPINE] | > 420 |
| CCCN(CCC)C(=O)Cc1c(-c2ccc(Cl)cc2)nc2ccc(Cl)cn12 [ALPIDEM] | 0.75 (≈ 0.303 µg/mL) |
| CN(C)CCCC1(c2ccc(F)cc2)OCc2cc(C#N)ccc21 (configuration not stated) [CITALOPRAM] | > 500 |
| CCN(CC)C(=O)C1(c2ccccc2)CC1CN (configuration not stated) | > 500 |
| CC[C@@H](C(N)=O)N1CCCC1=O | > 500 |
| OC[C@@H](O)CN1CCN(c2ccccc2)CC1 [LEVODROPROPIZINE] | > 500 |
| CC(N)Cc1ccccc1 (configuration not stated) [AMPHETAMINE] | > 500 |

same assay, conditions: buffer, pH 7.4

| Structure (SMILES) | solubility at 24 h, 600 µM [µM] |
| --- | --- |
| OCCOCCN1CCN(C2=Nc3ccccc3Sc3ccccc32)CC1 [QUETIAPINE] | 310 (≈ 119 µg/mL) |
| Nc1c2c(nc3ccccc13)CCCC2 [TACRINE] | > 500 |
| CNCC[C@H](Oc1cccc2ccccc12)c1cccs1 [DULOXETINE] | > 500 |
| CC(C)Cc1ccc(C(C)C(=O)O)cc1 (configuration not stated) [IBUPROFEN] | > 500 |
| O=C1Nc2ccc(Cl)cc2C(c2ccccc2Cl)=NC1O (configuration not stated) [LORAZEPAM] | 24 (≈ 7.71 µg/mL) |
| O=C1CN=C(c2ccccc2Cl)c2cc([N+](=O)[O-])ccc2N1 [CLONAZEPAM] | 30.2 (≈ 9.53 µg/mL) |

same assay, conditions: buffer, pH 7.4, 24 h, 600 µM

| Structure (SMILES) | solubility [µM] |
| --- | --- |
| CN[C@H]1CC[C@@H](c2ccc(Cl)c(Cl)c2)c2ccccc21 [SERTRALINE] | 350 (≈ 107 µg/mL) |

experiment: Solubility of the compound in PBS at pH 7.4; format: physicochemical; settings: PBS, read-out: solubility

| Structure (SMILES) | solubility [mg/mL] |
| --- | --- |
| CC(NC(C)(C)C)C(=O)c1cccc(Cl)c1 (configuration not stated) [BUPROPION] | 10 (≈ 41.7 mM) |

same assay, conditions: buffer

| Structure (SMILES) | solubility [mg/mL] |
| --- | --- |
| CC(C)Cc1ccc(C(C)C(=O)O)cc1 (configuration not stated) [IBUPROFEN] | 6.02 (≈ 29.2 mM) |

experiment: Solubility of the compound in water; format: physicochemical; settings: not given

| Structure (SMILES) | solubility |
| --- | --- |
| O=C1NC(=O)C(c2ccccc2)(c2ccccc2)N1 [PHENYTOIN] | 0.032 mg/mL |
| Nc1c2c(nc3ccccc13)CCCC2 [TACRINE] | 0.217 mg/mL |
| COC1=C(OC)C(=O)C(CCCCCCCCCCO)=C(C)C1=O [IDEBENONE] | 23.6 µM |
| O=C1Nc2ccc(Cl)cc2C(c2ccccc2Cl)=NC1O (configuration not stated) [LORAZEPAM] | 0.08 mg/mL |
| O=C1CN=C(c2ccccc2Cl)c2cc([N+](=O)[O-])ccc2N1 [CLONAZEPAM] | < 0.1 mg/mL |
| NC(=O)N1c2ccccc2CC(=O)c2ccccc21 [OXCARBAZEPINE] | 0.308 mg/mL |
| CC1(C)O[C@@H]2[C@@H](CO[C@@]3(COS(N)(=O)=O)OC(C)(C)O[C@@H]23)O1 [TOPIRAMATE] | 9.8 mg/mL |
| CC[C@@H](C(N)=O)N1CCCC1=O | 1000 mg/mL |

experiment: Solubility of the compound at pH 7.4; format: physicochemical; settings: buffer

| Structure (SMILES) | solubility |
| --- | --- |
| Cc1ccc(C(=O)c2cc(O)c(O)c([N+](=O)[O-])c2)cc1 [TOLCAPONE] | 0.115 mg/mL |
| NCC1(CC(=O)O)CCCCC1 [GABAPENTIN] | 0.441 mg/mL |
| Cc1ccc(-c2nc3ccc(C)cn3c2CC(=O)N(C)C)cc1 [ZOLPIDEM] | > 250 µM |
| CCCN(CCC)C(=O)Cc1c(-c2ccc(Cl)cc2)nc2ccc(Cl)cn12 [ALPIDEM] | 0.1 µM |
